{"source": "patent EP0297661B1", "about": "“[(Bicyclic heterocyclyl)methyl and -hetero] substituted hexahydro-1H-azepines and pyrrolidines” (JANSSEN PHARMACEUTICA N.V., priority 1987, dated 1989)", "data": [{"test_system": "compound 48/80-induced lethality", "assay": "Protection of rats from compound 48/80-induced lethality", "type": "in vivo", "conditions": "Rattus norvegicus; male Wistar rats; test compound subcutaneously or orally (route per compound not stated); one hour later compound 48/80 0.5 mg/kg intravenously; dose protecting 50% of animals, survival after 4 hours; read-out: compound 48/80 lethality test in rats-ED₅₀ in mg/kg body weight", "from_the_text": "Protection of rats from compound 48/80-induced lethality.\nCompound 48/80, a mixture of oligomers obtained by condensation of 4-methoxy-N-methylbenzeneethanamine and formaldehyde has been described as a potent histamine releasing agent (Int. Arch. Allergy, 13, 336 (1958)). The protection from compound 48/80-induced lethal circulatory collapse appears to be simple way of evaluating quantitatively the antihistaminic activity of test compounds. Male rats of an inbred Wistar strain, weighing 240-260 g were used in the experiment. After overnight starvation the rats were transferred to conditioned laboratories (temp. = 21 ± 1°C, relative humidity = 65 ± 5%). The rats were treated subcutaneously or orally with a test compound or with the solvent (NaCl solution, 0.9%). One hour after treatment there was injected intravenously compound 48/80, freshly dissolved in water, at a dose of 0.5 mg/kg (0.2 ml/100 g of body weight). In control experiments, wherein 250 solvent-treated animals were injected with the standard dose of compound 48/80, not more than 2.8% of the animals survived after 4 hours. Survival after 4 hours is therefore considered to be a safe criterion of a protective effect of drug administration. Said ED₅₀-values are the values in mg/kg body weight at which the tested compounds protect 50% of the tested animals against […] lethality.", "units": {"ED50": "mg/kg"}, "values": [{"smiles": "c1coc(Cn2c(NC3CCCNCC3)nc3cccnc32)c1", "note": "(centres unmarked) [compound 49, 3-(2-furanylmethyl)-N-(hexahydro-1H-azepin-4-yl)-3H-imidazo[4,5-b]pyridin2-amine]", "ED50": 0.04}, {"smiles": "Cc1ccc(Cn2c(NC3CCN(CCc4c(C)nc5ccccn5c4=O)C3)nc3ccccc32)o1", "note": "(centres unmarked) [compound 96]", "ED50": 0.04}, {"smiles": "Cc1nc2n(c(=O)c1CCN1CCC(Nc3nc4cccnc4n3Cc3ccccn3)C1)CCCC2", "note": "(centres unmarked) [compound 99]", "ED50": 0.04}, {"smiles": "Cc1ccc(Cn2c(NC3CCN(CCNc4nc5cnccc5[nH]4)C3)nc3cccnc32)o1", "note": "(centres unmarked) [compound 187, N-[1-[2-[(1H-imidazo[4,5-c]pyridin-2-yl)amino]ethyl]-3-pyrrolidinyl]-3-[(5-methyl-2-furanyl)methyl]-3H-imidazo[4,5-b]pyridin-2-amine]", "ED50": 0.04}, {"smiles": "CC(C)N1CCC(Nc2nc3ccccc3n2Cc2ccc(F)cc2)C1", "note": "(centres unmarked) [compound 204, 1-[(4-fluorophenyl)methyl]-N-[1-(1-methylethyl)-3-pyrrolidinyl]-1H-benzimidazol-2-amine]", "ED50": 0.04}, {"smiles": "Cc1nc2ccccn2c(=O)c1CCN1CCC(Nc2nc3cccnc3n2Cc2cscn2)C1", "note": "(centres unmarked) [compound 95]", "ED50": 0.04}, {"smiles": "CNC(=O)NCCN1CCC(Nc2nc3ccccc3n2Cc2ccc(F)cc2)C1", "note": "(centres unmarked) [compound 188, N-[2-[3-[[1-[(4-fluorophenyl)methyl]-1H-benzimidazol-2-yl]amino]-1-pyrrolidinyl]ethyl]-N′-methylurea]", "ED50": 0.01}, {"smiles": "Cc1ccc(Cn2c(NC3CCCN(CCO)CC3)nc3ccccc32)o1", "note": "(centres unmarked) [compound 211, hexahydro-4-[[1-[(5-methyl-2-furanyl)methyl]-1H-benzimidazol-2-yl]amino]-1H-azepine-1-ethanol]", "ED50": 0.04}, {"smiles": "Fc1ccc(Cn2c(NC3CCN(CCNc4ncccn4)C3)nc3ccccc32)cc1", "note": "(centres unmarked) [compound 166, 1-[(4-fluorophenyl)methyl]-N-[1-[-(2-pyrimidinylamino)ethyl]-3-pyrrolidinyl]-1H-benzimidazol-2-amine]", "ED50": 0.08}, {"smiles": "Cc1ccc(Cn2c(NC3CCCN(C)CC3)nc3cccnc32)o1", "note": "(centres unmarked) [compound 207, N-(hexahydro-1-methyl-1H-azepin-4-yl)-3-[(5-methyl-2-furanyl)methyl]-3H-imidazo[4,5-b]pyridin-2-amine]", "ED50": 0.01}, {"smiles": "COc1ccc(CCN2CCC(Nc3nc4cccnc4n3Cc3ccccn3)C2)cc1", "note": "(centres unmarked) [compound 61]", "ED50": 0.08}, {"smiles": "COc1ccc(CCN2CCCC(Nc3nc4cccnc4n3Cc3ccc(C)o3)CC2)cc1", "note": "(centres unmarked) [compound 68]", "ED50": 0.04}, {"smiles": "c1csc(Cn2c(NC3CCN(CCNc4nc5cnccc5[nH]4)C3)nc3ccccc32)c1", "note": "(centres unmarked) [compound 186]", "ED50": 0.01}, {"smiles": "O=c1[nH]c2ccccc2n1CCN1CCC(Nc2nc3ccccc3n2Cc2ccc(F)cc2)C1", "note": "(centres unmarked) [compound 125, 1-[2-[3-[[1-[(4-fluorophenyl)methyl]-1H-benzimidazol-2-yl]amino]-1-pyrrolidinyl]ethyl]-1,3-dihydro-2H-benzimidazol-2-one]", "ED50": 0.08}, {"smiles": "Cc1ccc(Cn2c(NC3CCN(CCc4c(C)nc5ccccn5c4=O)C3)nc3cccnc32)o1", "note": "(centres unmarked) [compound 94]", "ED50": 0.04}, {"smiles": "Fc1ccc(Cn2c(NC3CCN(CCNc4nccs4)C3)nc3ccccc32)cc1", "note": "(centres unmarked) [compound 168, 1-[(4-fluorophenyl)methyl]-N[1-[2-(2-thiazolylamino)ethyl]-3-pyrrolidinyl]-1H-benzimidazol-2-amine]", "ED50": 0.08}, {"smiles": "CN1CCCC(Nc2nc3cccnc3n2Cc2ccco2)CC1", "note": "(centres unmarked) [compound 196, 3-(2-furanylmethyl)-N-(hexahydro-1-methyl-1H-azepin-4-yl)-3H-imidazo[4,5-b]-pyridin-2-amine]", "ED50": 0.02}, {"smiles": "Cc1ccc(Cn2c(NC3CCN(CCc4c(C)nc5n(c4=O)CCCC5)C3)nc3ccccc32)o1", "note": "(centres unmarked) [compound 102]", "ED50": 0.04}, {"smiles": "Cc1ccc(Cn2c(NC3CCCN(C)CC3)nc3ccccc32)o1", "note": "(centres unmarked) [compound 198, N-(hexahydro-1-methyl-1H-azepin-4-yl)-1-[(5-methyl-2-furanyl)methyl]-1H-benzimidazol-2-amine]", "ED50": 0.04}, {"smiles": "O=c1oc2ccccc2cc1CCN1CCCC(Nc2nc3cccnc3n2Cc2ccco2)CC1", "note": "(centres unmarked) [compound 109, 3-[2-[4-[[3-(2-furanylmethyl)-3H-imidazo[4,5-b]pyridin-2-yl]-amino]hexahydro-1H-azepin-1-yl]ethyl]-2H-1-benzopyran-2-one]", "ED50": 0.04}]}]}
